From publication PMC8001104, “Repurposing of Some Natural Product Isolates as SARS-COV-2 Main Protease Inhibitors via In Vitro Cell Free and Cell-Based Antiviral Assessments and Molecular Modeling Approaches” (Pharmaceuticals, 2021)
≈ marks a conversion by molar mass, not a printed value. Like-named read-outs stand apart in the source and are kept apart here.

Columns and labels:
SARS-CoV-2 3CL Protease = SARS-CoV-2 3CL Protease (Severe acute respiratory syndrome coronavirus 2, UniProt P0DTD1); test: biochemical; conditions: for % inhibition: 100 µM
[1] = system: SARS-CoV-2 (hCoV-19/Egypt/NRC-03/2020); test: Antiviral IC50 determination, reduction of virus-induced cytopathic effect in Vero-E6 cells (crystal violet); assay type: cell-based
Cytotoxicity assay (MTT) = assay type: cell-based; conditions: African green monkey, VERO-E6 cells
Protocol: The cytotoxic activity of the tested compounds was tested in VERO-E6 cells by using the 3-(4, 5-dimethylthiazol-2-yl)-2, 5-diphenyltetrazolium bromide (MTT) method with minor modifications. Briefly, the cells were seeded in 96 well-plates (100 µL/well at a density of 3 × 10^5 cells/mL) and incubated for 24 h at 37 °C in 5% CO2. After 24 h, cells were treated with various concentrations of the tested compounds in triplicates. 24 h later, the supernatant was discarded, and cell monolayers were washed with sterile 1× phosphate buffer saline (PBS) 3 times and MTT solution (20 µL of 5 mg/mL stock solution) was added to each well and incubated at 37 °C for 4 h followed by medium aspiration. In each well, the formed formazan crystals were dissolved with 200 µL of acidified isopropanol (0.04 M HCl in absolute isopropanol = 0.073 mL HCL in 50 mL isopropanol). Absorbance of formazan solutions was measured at λ max 540 nm with 620 nm as a reference wavelength using a multi-well plate reader. The percentage of cytotoxicity compared to the untreated cells was determined with the following equation.

[2] = set-up: method as in PMID 31468636; conditions: dose of 600 mg, healthy volunteers, cited from earlier work
[3] = 100 µM concentration, FRET assay, read-out: % inhibition
[4] = SARS COV-2 viral main protease, FRET assay, read-out: IC50
[5] = 100 µM concentration, FRET assay

SMILES | inhibition at 100 µM (SARS-CoV-2 3CL Protease; [3]) [%] | inhibition at 100 µM (SARS-CoV-2 3CL Protease) [%] | other results
O=C(c1cc(O)cc(O)c1)c1c(O)cc(O)cc1O [Compound 3, 2,3′,4,5′,6-Pentahydroxy benzophenone] | 87.9 |  | IC50 (SARS-CoV-2 3CL Protease; [4]): 102 nM
O=c1cc(-c2ccc(O)cc2)oc2cc(OC3O[C@H](CO)[C@@H](O)[C@H](O)[C@H]3O)cc(O)c12 (stereo partly drawn) [Compound 6, Apigenin-7-O-β-D-glucoside] | 83.1 |  | IC50 (SARS-CoV-2 3CL Protease; [4]): 74 nM
COc1ccc(-c2cc(=O)c3c(O)cc(O)cc3o2)cc1Oc1ccc(-c2cc(=O)c3c(O)cc(O)cc3o2)cc1 [Compound 4, Ochnaflavone-4′-methyl ether] | 53 |  | % inhibition (SARS-CoV-2 3CL Protease; [5]): 53.22%
O=C(c1ccc(O)c(O)c1)c1c(O)cc(O)cc1OC1OC(CO)C(O)C(O)C1O [Compound 8, Maclurin-6-O-β-D-glucopyranoside (Rhodanthenone)] |  | 23.2 | 
O=C(O)c1cc(O)c2c(c1)[C@@H]([C@H]1c3cc(C(=O)O)cc(O)c3C(=O)c3c(O[C@@H]4O[C@H](CO)[C@@H](O)[C@H](O)[C@H]4O)cccc31)c1cccc(O[C@@H]3O[C@H](CO)[C@@H](O)[C@H](O)[C@H]3O)c1C2=O [Compound 2, Sennoside B] |  | 78.5 | 
C[C@@H]1O[C@@H](O[C@@H]2[C@@H](O)[C@H](OCCc3ccc(O)c(O)c3)O[C@H](CO)[C@H]2OC(=O)/C=C/c2ccc(O)c(O)c2)[C@H](O)[C@H](O)[C@H]1O [Compound 1, Acteoside] | 75.8 |  | IC50 (SARS-CoV-2 3CL Protease): 43 nM
CC1=CC(=O)C(C(C)C)=CC1=O [Compound 17, Thymoquinon] | 63 |  | % inhibition (SARS-CoV-2 3CL Protease; [5]): 63.21%
C/C=C1/[C@H](O[C@@H]2O[C@H](CO)[C@@H](O)[C@H](O)[C@H]2O)OC=C(C(=O)OC)[C@H]1CC(=O)OCCc1ccc(O)c(O)c1 [Compound 18, Oleuropein] |  | 26.4 | 
O=c1c(O)c(-c2ccc(O)cc2)oc2cc(OC3OC(CO)C(O)C(O)C3O)cc(O)c12 [Compound 16, Kaempferol-7-O-β-D-glucoside] |  | 23.3 | 
CC(C)C(=O)NCCC1(O)c2scnc2-c2nccc3c2C1Nc1ccccc1-3 (centres unmarked) [Compound 7, Sagitol C] |  | 27 | 
C[C@@H]1O[C@@H](O[C@@H]2[C@@H](O)[C@H](OCCc3ccc(O)c(O)c3)O[C@H](COC(=O)/C=C/c3ccc(O)c(O)c3)[C@H]2O)[C@H](O)[C@H](O)[C@H]1O [Compound 15, Iso-Acteoside] |  | 24.6 | 
O=C1C[C@@H](c2ccc(O)cc2)Oc2cc(O)cc(O)c21 [Compound 5, Naringenin] |  | 97.9 | IC50 (SARS-CoV-2 3CL Protease): 92 nM; IC50 ([1]; Severe acute respiratory syndrome coronavirus 2, Vero C1008, 72 h, read-out: IC50 (anti-SARS-CoV-2)): 28.3 µg/mL (≈ 104 µM); selectivity index (CC50/IC50) ([1]; Vero-E6 cells): 6.3; CC50 at 24 h (Cytotoxicity assay (MTT)): 179 µg/mL (≈ 657 µM); toxicity [2]: without relevant toxicity; Cmax ([2]; read-out: serum Cmax): ~50 µM
